Among the test systems are UACC-62; T47D; MCF7; SW-620; HOP-62; PC-3; EKVX; Malme-3M; CCRF-CEM; SN12C; ACHN; SNB-19; SR; MDA-MB-435; NCI-H522; HCT-15; BT-549; MOLT-4; SK-MEL-5.
Common to all, as to assay: NCI-60 cell line screen, 48 h

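1) Cells in 96-well plates. 2) Compound, 48 h, 5 concentrations. 3) Linear interpolation between surrounding doses. 4) Unreached endpoint = highest concentration. The concentration for 50% growth inhibition is given as GI50.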 Calls of active or inactive are those of the source. Cut-off read from the data, not from the text of the source: active = GI50 up to about 1.1 µM and inactive = higher.

Take `COc1ccc(C2SC(=N)Nc3c2c(C)nn3C(=O)c2ccc(Cl)cc2)cc1OC` (centres undefined): the GI50 with UACC-62, with T47D, in the assay with MCF7, in the assay on SW-620, with HOP-62 and in the assay on PC-3 was > 10 µM (inactive) each time. Moreover, the GI50 in the assay on EKVX, with Malme-3M, in the assay with CCRF-CEM, with SN12C, in the assay on ACHN and with SNB-19 was > 10 µM (inactive) in each case. The GI50 in the assay with SR is > 10 µM (inactive); in the assay on MDA-MB-435 it was > 10 µM (inactive); with NCI-H522, > 10 µM (inactive); with HCT-15, more than 10 µM; in the assay with BT-549, > 10 µM (inactive); in the assay with MOLT-4, > 10 µM (inactive). Also, the GI50 in the assay with SK-MEL-5 was > 10 µM (inactive).
Take `CCCCc1c(N(C)C)c(OC(C)=O)c(-c2cn(C)c3ccccc23)oc1=O`: the GI50 was 14.1 µM (inactive) in the assay with UACC-62; 29.6 µM (inactive) in the assay on T47D; 13.1 µM (inactive) in the assay with MCF7; 23.6 µM (inactive) in the assay on SW-620; 19.8 µM (inactive) with HOP-62; 18.6 µM (inactive) in the assay on PC-3. Moreover, the GI50 in the assay on EKVX is 26.1 µM (inactive); with Malme-3M, 24.8 µM (inactive); in the assay on CCRF-CEM, 33.4 µM (inactive); in the assay on SN12C, 24.5 µM (inactive); in the assay on ACHN, 17.9 µM (inactive); in the assay with SNB-19, 28.7 µM (inactive). Moreover, the GI50 in the assay with SR is > 100 µM (inactive); in the assay on MDA-MB-435, 19.1 µM (inactive); in the assay on NCI-H522, 20.9 µM (inactive); in the assay with HCT-15, 19.4 µM; in the assay with BT-549 it was 28.3 µM (inactive); in the assay on MOLT-4, 47.9 µM (inactive). Also, in the assay on SK-MEL-5, the GI50 is 13.8 µM (inactive).
Turning to `O=C1Nc2ccccc2/C1=C1\C(=O)Nc2ccccc21` [ISOINDIGO], the GI50 is 17.3 µM (inactive) in the assay with UACC-62; 1.35 µM (inactive) in the assay with T47D; 4.52 µM (inactive) with MCF7; 4.57 µM (inactive) in the assay on SW-620; 25 µM (inactive) with HOP-62; 9.75 µM (inactive) in the assay on PC-3. Also, the GI50 is 20.7 µM (inactive) in the assay with EKVX; 13.2 µM (inactive) with Malme-3M; 2.9 µM (inactive) in the assay on CCRF-CEM; 19 µM (inactive) in the assay on SN12C; 12.6 µM (inactive) with ACHN; 22.5 µM (inactive) in the assay with SNB-19. Also, the GI50 in the assay with SR was 2.82 µM (inactive); in the assay with MDA-MB-435, 11.9 µM (inactive); in the assay on NCI-H522, 10.3 µM (inactive); in the assay with HCT-15, 3.84 µM; with BT-549 it was 25.6 µM (inactive); with MOLT-4, 3.59 µM (inactive). Also, in the assay with SK-MEL-5, the GI50 was 59.7 µM (inactive).
Take `COc1cc(C2c3cc4c(cc3OC(N3CCOCC3)C2C)OCO4)cc(OC)c1OC` (centres undefined): the GI50 is 0.537 µM (active) in the assay on UACC-62; 0.323 µM (active) in the assay on T47D; 0.51 µM (active) in the assay on MCF7; 0.59 µM (active) in the assay on SW-620; 3.63 µM (inactive) in the assay on HOP-62; 1.19 µM (inactive) in the assay with PC-3. The GI50 in the assay on EKVX is 15.8 µM (inactive); with Malme-3M, 3.79 µM (inactive); in the assay on CCRF-CEM, 0.457 µM (active); in the assay on SN12C, 4.18 µM (inactive); in the assay with ACHN it was 3.85 µM (inactive); with SNB-19 it was 0.838 µM (active). The GI50 in the assay with SR is 0.466 µM (active); with MDA-MB-435, 0.179 µM (active); in the assay on NCI-H522 it was 0.614 µM (active); with HCT-15, 0.418 µM; in the assay on BT-549, 4.29 µM (inactive); in the assay on MOLT-4 it was 1.09 µM (active). Moreover, the GI50 in the assay on SK-MEL-5 is 0.378 µM (active).
For `O=C(/C=C/c1cc(O)c(O)cc1O)OCCc1ccccc1`, the GI50 is 17.9 µM (inactive) in the assay with UACC-62; 4.4 µM (inactive) in the assay on T47D; 15 µM (inactive) in the assay on MCF7; 5.19 µM (inactive) in the assay with SW-620; 31.1 µM (inactive) in the assay on HOP-62; 17.3 µM (inactive) in the assay with PC-3. The GI50 in the assay on EKVX is 41.4 µM (inactive); in the assay on Malme-3M, 13.6 µM (inactive); in the assay on CCRF-CEM, 2.07 µM (inactive); in the assay on SN12C it was 15.6 µM (inactive); with ACHN, 12.2 µM (inactive); with SNB-19, 61.7 µM (inactive). Also, the GI50 in the assay on SR was 5.53 µM (inactive); in the assay with MDA-MB-435, 20.2 µM (inactive); with NCI-H522 it was 2.28 µM (inactive); in the assay on HCT-15, 22.2 µM; with BT-549, 25.7 µM (inactive); in the assay on MOLT-4, 2.87 µM (inactive). The GI50 in the assay on SK-MEL-5 was 18.7 µM (inactive).
Regarding `C[C@H]1O[C@@H](C(C)(C)C)OC(=O)[C@@H]1C(OC(=O)c1ccccc1)c1cccc2ccccc12` (some centres undefined), the GI50 with UACC-62 was > 100 µM (inactive); in the assay on T47D, 64.1 µM (inactive); in the assay with MCF7 it was > 100 µM (inactive); in the assay with SW-620 it was > 100 µM (inactive); in the assay with HOP-62 it was > 100 µM (inactive); in the assay on PC-3 it was > 100 µM (inactive). The GI50 in the assay on EKVX, in the assay with Malme-3M, in the assay on CCRF-CEM, in the assay on SN12C, in the assay on ACHN and with SNB-19 was > 100 µM (inactive) throughout. Moreover, the GI50 in the assay on SR was 48.4 µM (inactive); in the assay with MDA-MB-435 it was > 100 µM (inactive); in the assay with NCI-H522, > 100 µM (inactive); with HCT-15, more than 100 µM; with BT-549, > 100 µM (inactive); in the assay with MOLT-4, > 100 µM (inactive). Further, the GI50 in the assay with SK-MEL-5 was > 100 µM (inactive).
For the compound `CC(=O)OCC1OC(OC(C)=O)C(Nc2ncc(-c3ccc(C)cc3)s2)C(OC(C)=O)C1OC(C)=O` (centres undefined), the GI50 in the assay on UACC-62 was 14.4 µM (inactive); with T47D it was 15.2 µM (inactive); in the assay with MCF7, 20.3 µM (inactive); in the assay on SW-620, 13.7 µM (inactive); in the assay on HOP-62, 20.4 µM (inactive); in the assay on PC-3, 15.9 µM (inactive). Also, the GI50 is 14.3 µM (inactive) in the assay with EKVX; 21.2 µM (inactive) with Malme-3M; 4.4 µM (inactive) in the assay on CCRF-CEM; 18.2 µM (inactive) in the assay on SN12C; 14.6 µM (inactive) in the assay with ACHN; 21.4 µM (inactive) with SNB-19. Moreover, the GI50 was 26.4 µM (inactive) with SR; 15.8 µM (inactive) in the assay on MDA-MB-435; 15.7 µM (inactive) with NCI-H522; 22.5 µM with HCT-15; 18.6 µM (inactive) in the assay with BT-549; 11 µM (inactive) in the assay with MOLT-4. Also, the GI50 with SK-MEL-5 was 15.8 µM (inactive).
Regarding `O=C(NNC(=O)c1ccccc1O)c1cccs1`, the GI50 in the assay with UACC-62 was 49.8 µM (inactive); in the assay with T47D, > 100 µM (inactive); in the assay on MCF7, 52.2 µM (inactive); in the assay with SW-620, 61.5 µM (inactive); with HOP-62, 42.6 µM (inactive); in the assay on PC-3, 47.5 µM (inactive). Also, the GI50 in the assay on EKVX was 34.4 µM (inactive); with Malme-3M, 22.1 µM (inactive); in the assay with CCRF-CEM, > 100 µM (inactive); in the assay on SN12C, > 100 µM (inactive); in the assay on SNB-19, > 100 µM (inactive); in the assay with SR, 71 µM (inactive). The GI50 was > 100 µM (inactive) in the assay on MDA-MB-435; 3.51 µM (inactive) with NCI-H522; 47.8 µM in the assay on HCT-15; > 100 µM (inactive) with BT-549; 54.7 µM (inactive) with MOLT-4; > 100 µM (inactive) with SK-MEL-5.
Regarding `CN(/N=C/c1ccccn1)C1=NCCCN1`, the GI50 with UACC-62, in the assay on T47D, in the assay on MCF7, with SW-620, with HOP-62 and with PC-3 was > 100 µM (inactive) each time. Moreover, the GI50 with EKVX, in the assay on Malme-3M, with CCRF-CEM, in the assay with ACHN, with SNB-19 and with SR was > 100 µM (inactive) throughout. For the same compound, the GI50 is > 100 µM (inactive) in the assay on MDA-MB-435; > 100 µM (inactive) in the assay with NCI-H522; more than 100 µM in the assay with HCT-15; > 100 µM (inactive) in the assay with BT-549; > 100 µM (inactive) in the assay on MOLT-4; > 100 µM (inactive) in the assay on SK-MEL-5.
Take `CC(=O)c1cccc(Nc2c3ccccc3nc3occc23)c1`: the GI50 in the assay on UACC-62 is 9.04 µM (inactive); in the assay with T47D, 5.14 µM (inactive); with MCF7, 3.94 µM (inactive); in the assay with HOP-62 it was 3.61 µM (inactive); in the assay on PC-3, 13 µM (inactive); in the assay with EKVX it was 25.6 µM (inactive). The GI50 with Malme-3M was 4.9 µM (inactive); in the assay with CCRF-CEM, 3.3 µM (inactive); in the assay on SN12C, 8.38 µM (inactive); in the assay with ACHN, 9.73 µM (inactive); in the assay with SNB-19 it was 10.9 µM (inactive); with SR, 0.705 µM (active). In addition, the GI50 in the assay with MDA-MB-435 is 1.07 µM (active); in the assay on NCI-H522, 1.54 µM (inactive); in the assay on HCT-15, 3.99 µM; with BT-549, 12.3 µM (inactive); in the assay with MOLT-4 it was 5.27 µM (inactive); with SK-MEL-5 it was 8.75 µM (inactive).
Take `C/C(=N\c1c2ccccc2nc2ccccc12)N(C)C`: the GI50 in the assay on UACC-62 is 15.2 µM (inactive); with T47D, 20.5 µM (inactive); in the assay with MCF7, 25.8 µM (inactive); in the assay with HOP-62, 16.5 µM (inactive); with PC-3, 14.6 µM (inactive); with EKVX it was 32.7 µM (inactive). The GI50 is 32.9 µM (inactive) in the assay on Malme-3M; 8.87 µM (inactive) in the assay with CCRF-CEM; 19.8 µM (inactive) in the assay with ACHN; 34 µM (inactive) in the assay with SNB-19; 3.47 µM (inactive) in the assay with SR; 22.5 µM (inactive) in the assay on MDA-MB-435. Also, the GI50 in the assay on NCI-H522 was 10.7 µM (inactive); in the assay with HCT-15 it was 28.6 µM; in the assay on BT-549 it was 25.8 µM (inactive); in the assay with MOLT-4, 12.2 µM (inactive); in the assay on SK-MEL-5, 14.6 µM (inactive).

For the origin of these results see ChEMBL document CHEMBL1201862, “PubChem BioAssay data set” (2004).
